These results are taken from PMC3511469, “Five Different Piscidins from Nile Tilapia, Oreochromis niloticus: Analysis of Their Expressions and Biological Functions” (PLoS ONE, 2012).

For one data set, the system named is S. agalactiae BCRC 10787. The class given is cell-based, Streptococcus agalactiae. The following applies: BCRC 10787, pH 7.4. How it is done: (§1) Escherichia coli for transformation was cultured in LB medium at 37°C.
(§2) Peptides were synthesized by GL Biochem (Shanghai, China) using a solid-phase procedure of Fmoc chemistry. Crude peptides were extracted, lyophilized, and purified by reverse-phase high-performance liquid chromatography (HPLC). The molecular masses and purities of the purified peptides were respectively verified by mass spectroscopy and HPLC. Synthetic peptides at >95% purity were reconstituted in phosphate-buffered saline (PBS; pH 7.4) for the experiments. The TP1 sequence was FDWDSVLKGVEGFVRGYF, the TP2 sequence was […], the TP3 sequence was […], the TP4 sequence was […], the TP5 sequence was […], the epinecidin-1 (Epi-1) sequence was […], and the cod pis 1 sequence was […]. C terminals of all synthetic peptides were amidated. The minimal inhibitory concentration (MIC) was measured for each strain of microorganism listed above. The MICs of the peptides were determined by a broth microdilution analysis based on an online method (http://cmdr.ubc.ca/bobh/methods/MODIFIEDMIC.html; Hancock Laboratory Methods. Department of Microbiology and Immunology, University of British Columbia, British Columbia, Canada) without modification.

The next data set deals with S. agalactiae 819. The class given is cell-based, Streptococcus agalactiae. To be noted: 819, pH 7.4. How it is done: as §1, §2
Another data set has as its system V. vulnificus 204. Format: cell-based, Vibrio vulnificus. The following applies: 204, pH 7.4. How it is done:
as §1, §2

The subject of a further data set is A. hydrophila BCRC 13018. The class given is cell-based, Aeromonas hydrophila. The following applies: BCRC 13018, pH 7.4. How it is done: as §1, §2
For another data set, the system named is E. faecalis BCRC 10066. Format: cell-based, Enterococcus faecalis. To be noted: BCRC 10066, pH 7.4. The method, then: as §1, §2
Another data set relates to P. aeruginosa ATCC 19660. The class given is cell-based, Pseudomonas aeruginosa. To be noted: ATCC 19660, pH 7.4. The method, then:
as §1, §2

In the next data set the test system is V. alginolyticus. Format: cell-based, Vibrio alginolyticus. To be noted: pH 7.4. How it is done:
as §1, §2

A further data set relates to human erythrocytes. The class given is cell-based. The method, then:
(§3) The hemolytic activities of Nile tilapia piscidins were determined according to a previous method, [34]. In brief, erythrocytes of tilapia (2×10^7 cells) were washed three times with 0.9% NaCl and incubated with various concentrations of the peptides for 3 h at 37°C. After centrifugation, the absorbance at 545 nm of the suspension was determined. Erythrocytes in PBS (Ablank) and 0.1% Triton X-100 (Atriton) respectively served as the negative and positive controls. The percentage of hemolysis was calculated according to the equation described in a previous publication. The hemolysis assay was performed in triplicate.
Supplementary file pone.0050263.s004.tif: Figure S4 In vitro assays used HeLa (ATCC: CCL-2™), RAW264.7 (ATCC: TIB-71™), and MRC-5 (ATCC: CCL-171™) cells. Tumor cells (HeLa and RAW264.7 cells) and normal cells (MRC-5) were treated with different doses of piscidin peptides (TP1∼5) for 24 h, followed by an MTS assay. Each concentration was repeated in eight wells for three independent experiments. Results are expressed as a percentage of the survival rate of viable cells. Piscidin treatment affected cell viability in a dose-dependent manner. There were significant differences between treatment groups for TP4 and TP3. Data are from three separate experiments. Hemolytic activities of TP1∼5 against human erythrocytes. […]

The test system of a further data set is erythrocytes of tilapia. Format: cell-based. How it is done: as §3
In data set [1] the test system is methicillin-resistant Staphylococcus aureus (MRSA). To be noted: in vitro assay; synthetic peptide; cited from earlier work. The text has this: Piscidins are cationic AMPs expressed by fish mast cells. […] The piscidin family includes pleurocidin, moronecidin, chrysophsin, dicentracin, epinecidin-1, and myxinidin. Piscidins have a widespread presence in higher teleosts, so far including 11 species in eight families of the Moronidae, Sciaenidae, Sparidae, Latidae, Siganidae, Belontida ...

Where no end group is shown, it is not given here. Where only a bound is given, the exact number is not on record here.

As for “GFIFHIIKGLFHAGKMIHGLV-NH2 [Epi-1, epinecidin-1, reference compound]”, the MIC (commonly the smallest concentration in the dilution series that meets the test's criterion for growth inhibition) against S. agalactiae BCRC 10787 is 0.33 µg/mL; against S. agalactiae 819 it was above 21.41 µg/mL; against V. vulnificus 204 it was 0.67 µg/mL; in the data set with A. hydrophila BCRC 13018 it was above 21.41 µg/mL; in the data set on E. faecalis BCRC 10066, above 21.41 µg/mL; in the data set on P. aeruginosa ATCC 19660 it was 10.70 µg/mL. This substance yielded a minimal inhibitory concentration (MIC) against V. alginolyticus of 2.68 µg/mL.
Regarding FIHHIIGGLFSVGKHIHSLIHGH-NH2 [TP3], the MIC was 0.61 µg/mL in the data set with S. agalactiae BCRC 10787; 9.78 µg/mL against S. agalactiae 819; 2.44 µg/mL against V. vulnificus 204; above 19.55 µg/mL against A. hydrophila BCRC 13018; 19.55 µg/mL with E. faecalis BCRC 10066; above 19.55 µg/mL against P. aeruginosa ATCC 19660. Moreover, the MIC against V. alginolyticus was 2.44 µg/mL. Also, in the data set with human erythrocytes, the “hemolytic activity toward human erythrocytes” value is “low hemolytic activity”.
As for “FIHHIIGWISHGVRAIHRAIHG-NH2 [cod Pis 1, reference compound]”, the MIC was 0.31 µg/mL against S. agalactiae BCRC 10787; 9.89 µg/mL in the data set on S. agalactiae 819; 0.62 µg/mL in the data set on V. vulnificus 204; 19.78 µg/mL with A. hydrophila BCRC 13018; 9.89 µg/mL against E. faecalis BCRC 10066; above 19.78 µg/mL with P. aeruginosa ATCC 19660. This substance showed an MIC in the data set on V. alginolyticus of 1.24 µg/mL.
Take FIHHIIGGLFSAGKAIHRLIRRRRR-NH2 [TP4]: the MIC was found to be 0.13 µg/mL in the data set with S. agalactiae BCRC 10787; 2.10 µg/mL with S. agalactiae 819; 0.03 µg/mL with V. vulnificus 204; 1.05 µg/mL in the data set on A. hydrophila BCRC 13018; 8.39 µg/mL in the data set with E. faecalis BCRC 10066; 0.52 µg/mL against P. aeruginosa ATCC 19660. The substance also showed an MIC with V. alginolyticus of 0.03 µg/mL. For the same substance, the “concentration at which the hemolytic effect began” value in the data set on erythrocytes of tilapia and in the data set on human erythrocytes was 400 to 800 ng/mL throughout.
With “FFHHIFRGIVHVGKTIHRLVTG [piscidin 1, synthetic piscidin 1, literature values]”, in data set [1], the MIC was 3.1 µM.
Turning to QLQGKQVSGEVVQKVLQELIQSVAKP-NH2 [TP5], the MIC in the data set on S. agalactiae BCRC 10787, with S. agalactiae 819, with V. vulnificus 204, in the data set with A. hydrophila BCRC 13018, against E. faecalis BCRC 10066 and with P. aeruginosa ATCC 19660 was above 17.64 µg/mL in each case. In the data set on V. alginolyticus, the MIC was above 17.64 µg/mL.
With FDWDSVLKGVEGFVRGYF-NH2 [TP1], the MIC against S. agalactiae BCRC 10787, against S. agalactiae 819, with V. vulnificus 204, with A. hydrophila BCRC 13018, in the data set on E. faecalis BCRC 10066 and against P. aeruginosa ATCC 19660 was above 23.57 µg/mL throughout. This substance displayed an MIC against V. alginolyticus above 23.57 µg/mL.
With GECIWDAIFHGAKHFLHRLVNP-NH2 [TP2], the MIC with S. agalactiae BCRC 10787, against S. agalactiae 819, with V. vulnificus 204, with A. hydrophila BCRC 13018, against E. faecalis BCRC 10066 and with P. aeruginosa ATCC 19660 was above 19.52 µg/mL each time. Also, the minimum inhibitory concentration (MIC) in the data set on V. alginolyticus was above 19.52 µg/mL.
